Test results as given in patent publication US9340622B2, “Synthetic immunogen useful for generating long lasting immunity and protection against pathogens” (priority 2010, dated 2016).
Like-named read-outs stand apart in the source and are kept apart here. Ends that are not written are not given here.

Key:
CD4 T cells = assay: Intracellular staining for IFN-γ in CD4 T cells; assay type: cell-based; conditions: splenocytes of mice immunized with lipopeptide containing SEQ ID No. 1, cultured 48 h, restimulated 6 h, FIG. 6
Protocol: FIG. 6. CD4 T cells from mice immunized with immunogen containing SEQ ID No. 1 produced IFN-γ on in vitro peptide restimulation. Mice were immunized with lipopeptide containing SEQ ID No. 1. Splenocytes from the immunized mice were cultured with A) medium; B) Pam2Cys; C) non-lipidated peptide (SEQ ID No. 1); D) lipopeptide (containing SEQ ID No. 1) for 48 h. Cells were restimulated for 6 h and stained for surface CD4 and intracellular for IFN-γ. Representative flow cytometry contours depict IFN-γ producing CD4 T cells and numbers indicate their percentage.
Mice were immunized with the developed immunogenic lipopeptides (20 nmol/animal). Twenty-one days later, a booster dose (10 nmol) was administered. Animals were sacrificed 45 days post booster immunization.
Lymphocytes (2×10^6 cells/ml) were cultured with peptides in triplicates in 96 w plate for 48 h. Cells were pooled and washed twice with wash buffer (PBS containing FBS-1%). Cells were re-stimulated with PMA (50 ng/ml) and ionomycin (1 μg/ml) for 6 h/37° C. and in the last 4 h brefeldin A (10 μg/ml) was added in cultures. After 6 h of activation, cells, were washed twice with staining buffer (BSA-1%, NaN3-0.01% in PBS). […] Finally, cells were fixed in parafolmaldehyde-1% and acquired on FACS Aria II and data was analyzed by FACS DIVA (BD Biosciences, San Jose, Calif.).

Bone marrow derived DCs = assay: Activation and MHC markers on bone marrow derived DCs; assay type: cell-based, C57BL/6 mice; conditions: BMDCs day 7, treated 12 hrs
Protocol: FIG. 4. Lipidated peptides [immunogens] enhance DC maturation. (A) BALB/c mice were immunized with lipidated peptides [immunogen] and free peptides. Total splenocytes were recovered and in vitro stimulated with the lipidated and free peptides. After 48 hrs of incubation, they were harvested and stained for DC population (CD11c^+/CD40^+). CD11c^+/CD40^+ population indicates mature DCs. Lipidated immunogen constructs were able to induce DC maturation compared to their unlipidated counterparts. (B) Bone marrow derived DCs from C57BL/6 mice were cultured using standard protocol. On day 7 of culture they were treated with free or lipidated peptides for 12 hrs and then the cells were harvested and stained for activation markers. […] (C) On day 7 of culture, bone marrow derived DCs were treated with free or lipidated peptides for 12 hrs. Later on, the cells were harvested and stained for CD74 (immature MHC) and IA^b (mature MHC).

[1] = test system: human peripheral blood mononuclear cells; assay: T cell proliferation of human PBMCs (3H-thymidine incorporation); assay type: cell-based; conditions: compared to non-lipidated peptide counterparts, FIG. 9
M. tuberculosis H37Rv [2] = test system: M. tuberculosis H37Rv; design: species or system Duncan-Hartley guinea pigs; conditions: guinea pig, in vivo
M. tuberculosis H37Rv [3] = test system: M. tuberculosis H37Rv; design: species or system mice; conditions: mouse, in vivo
[4] = compared to free peptide, FIG. 4C

CCCCCCCCCCCCCCCC(=O)OCC(CSC[C@H](N)C(=O)O)OC(=O)CCCCCCCCCCCCCCC (stereo partly drawn) [Pam2Cys, S-[2,3-bis(palmitoyloxy)propyl]cysteine, reference compound]
production of IFN-γ in CD4 T cells (CD4 T cells): did not elicit production of IFN-γ

L91: immunogen wherein X1=SEQ ID. No. 1 and X2=0; peptide linked via two serines to Pam2Cys (SEFAYGSFVRTVSLPVGADE; also: linked via two serines to Pam2Cys, end not given here; listed as Mycobacterium tuberculosis)
expression of CD74 (immature MHC) (Bone marrow derived DCs; [4]): decrease in expression
expression of IA^b (mature MHC) (Bone marrow derived DCs; [4]): enhanced expression
expression of CD80, CD86, CD40 (Bone marrow derived DCs; compared to p91 treated cells, FIG. 4B): enhanced expression
proliferation of human PBMCs from sputum positive tuberculosis patient [1]: enhanced the proliferation
Mycobacterial load in lungs (CFU) (M. tuberculosis H37Rv [2]): significantly lower bacterial load in lungs
production of IFN-γ in CD4 T cells (CD4 T cells): predominant production of IFN-γ
Mycobacterial load in lungs (CFU) (M. tuberculosis H37Rv [3]): restricted the growth of mycobacterium significantly
